The structures appear in SMILES notation.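 Protocol summary: plate cells (96-well), add compound at 5 concentrations, incubate 48 h, interpolate endpoints linearly. TGI: concentration producing complete growth inhibition.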

Among the test systems are ACHN renal; CCRF-CEM leukemia; DU-145 prostate; EKVX NSCLC; HL-60(TB) leukemia; HOP-62 NSCLC; HT29 colon; KM12 colon; M14 melanoma; MDA-N; NCI-H23 lung; OVCAR-8 ovarian; RPMI-8226 leukemia; SF-268 CNS; SF-295 CNS; SW-620 colon; UO-31 renal; SNB-75 CNS.
Common to all, as to assay: growth of human tumour cells (NCI), 48 h

With `O=C1CSC(c2cccc([N+](=O)[O-])c2)N1c1ccc(-n2c(-c3ccccc3)nc3ccccc3c2=O)cc1` (configuration not stated), the TGI with ACHN renal, with CCRF-CEM leukemia, in the assay with DU-145 prostate, in the assay with EKVX NSCLC, with HL-60(TB) leukemia and in the assay with HOP-62 NSCLC was above 100 µM throughout. For the same compound, the TGI with HT29 colon, in the assay with KM12 colon, in the assay with M14 melanoma, with MDA-N, in the assay with NCI-H23 lung and in the assay on OVCAR-8 ovarian was above 100 µM each time. The TGI with RPMI-8226 leukemia is above 100 µM; with SF-268 CNS, above 100 µM; in the assay on SF-295 CNS, above 100 µM; in the assay on SW-620 colon, above 100 µM; in the assay on UO-31 renal, 65.6 µM.

With `CCOC(=O)c1c(N2CCOCC2)[nH]c(=O)c(C(c2ccco2)c2c(O)c(C(=O)OCC)c(N3CCOCC3)[nH]c2=O)c1O`, the TGI in the assay on ACHN renal, in the assay with CCRF-CEM leukemia, in the assay with DU-145 prostate, with EKVX NSCLC, in the assay with HOP-62 NSCLC and with HT29 colon was above 100 µM each time. Besides, the TGI with KM12 colon, in the assay on M14 melanoma, with MDA-N, with NCI-H23 lung, in the assay with OVCAR-8 ovarian and in the assay with RPMI-8226 leukemia was above 100 µM throughout. For the same compound, the TGI with SF-268 CNS, in the assay on SF-295 CNS, in the assay with SNB-75 CNS, with SW-620 colon and with UO-31 renal was above 100 µM in each case.

With `N#C/C(N)=C(\C#N)NC(=O)C(=O)N/C(C#N)=C(\N)C#N`, the TGI with ACHN renal, in the assay on CCRF-CEM leukemia, in the assay with DU-145 prostate, in the assay on EKVX NSCLC, in the assay on HOP-62 NSCLC and in the assay with HT29 colon was above 100 µM each time. For the same compound, the TGI in the assay on KM12 colon, in the assay with M14 melanoma, in the assay on MDA-N, in the assay on NCI-H23 lung, in the assay with OVCAR-8 ovarian and with RPMI-8226 leukemia was above 100 µM in each case. Besides, the TGI in the assay on SF-268 CNS, in the assay with SF-295 CNS, in the assay with SNB-75 CNS, in the assay on SW-620 colon and in the assay on UO-31 renal was above 100 µM in each case.

`Cc1ccc2c(c1)-c1nc(N)c(C#N)c(-c3ccccc3)c1CCS2(=O)=O`: the TGI in the assay on ACHN renal, in the assay on DU-145 prostate, in the assay on HOP-62 NSCLC, with HT29 colon, with KM12 colon and in the assay on M14 melanoma was above 100 µM in each case. Also, the TGI in the assay with MDA-N is above 100 µM; in the assay with NCI-H23 lung, above 100 µM; in the assay with OVCAR-8 ovarian, 56.5 µM; in the assay on RPMI-8226 leukemia, above 100 µM; in the assay on SF-268 CNS, above 100 µM; in the assay on SNB-75 CNS it was 81.8 µM. Besides, the TGI in the assay with SW-620 colon and with UO-31 renal was above 100 µM throughout.

As to `C=C(C)[C@@H]1CCC2=C[C@H](OC2=O)[C@@]2(C)C[C@@H]2C2=CC(C)=C(O2)[C@H]1O`, the TGI with ACHN renal, in the assay on CCRF-CEM leukemia, in the assay with DU-145 prostate, in the assay on EKVX NSCLC, in the assay with HL-60(TB) leukemia and in the assay with HOP-62 NSCLC was above 75 µM each time. Further, the TGI in the assay with HT29 colon, with KM12 colon, with M14 melanoma, with MDA-N, in the assay on NCI-H23 lung and with OVCAR-8 ovarian was above 75 µM throughout. The TGI in the assay on SF-268 CNS, with SF-295 CNS, in the assay on SNB-75 CNS, with SW-620 colon and in the assay with UO-31 renal was above 75 µM in each case.

`O=c1/c(=C/c2ccc(-c3ccc(Cl)cc3Cl)o2)sc2n1[C@@H](c1ccc(Cl)cc1)C=C(c1cc(F)c(Cl)cc1Cl)N=2`: the TGI with ACHN renal is above 100 µM; in the assay with DU-145 prostate, above 100 µM; with HOP-62 NSCLC it was 34.6 µM; with HT29 colon, above 100 µM; in the assay on KM12 colon it was above 100 µM; in the assay on M14 melanoma, above 100 µM. Moreover, the TGI in the assay on MDA-N, with NCI-H23 lung, with OVCAR-8 ovarian, in the assay with RPMI-8226 leukemia, in the assay with SF-268 CNS and in the assay on SF-295 CNS was above 100 µM each time. Moreover, the TGI in the assay with SNB-75 CNS, with SW-620 colon and in the assay with UO-31 renal was above 100 µM each time.

As to `COc1ccc(SCc2cc(OCc3ccccc3)c(OCc3ccccc3)c(OCc3ccccc3)c2)cc1`, the TGI worked out at 3.1 µM with ACHN renal; 3.49 µM in the assay on CCRF-CEM leukemia; 3.13 µM in the assay with DU-145 prostate; 4.37 µM with EKVX NSCLC; 3.44 µM in the assay on HL-60(TB) leukemia; 3.16 µM in the assay with KM12 colon. Further, the TGI in the assay with M14 melanoma is 3.57 µM; in the assay with MDA-N, 3.29 µM; with NCI-H23 lung it was 3.35 µM; with OVCAR-8 ovarian, 3.59 µM; in the assay with SF-268 CNS it was 3.42 µM; in the assay on SF-295 CNS it was 3.58 µM. Also, the values for the TGI in the assay with SNB-75 CNS and with UO-31 renal were 3 µM and 3.18 µM, respectively.

With `C[C@@H]1CC[C@@H]2[C@@H](C1)O[C@@H]([C@H](C)OCc1ccccc1)SC2(C)C`, the TGI in the assay with ACHN renal is 37.2 µM; with DU-145 prostate it was above 100 µM; in the assay with EKVX NSCLC, above 100 µM; in the assay with HOP-62 NSCLC, above 100 µM; in the assay on HT29 colon, above 100 µM; in the assay with KM12 colon, 36.1 µM. For the same compound, the TGI in the assay on M14 melanoma is 47.1 µM; in the assay on MDA-N, 65.5 µM; in the assay with NCI-H23 lung, above 100 µM; in the assay on OVCAR-8 ovarian it was above 100 µM; in the assay with RPMI-8226 leukemia, 35.1 µM; with SF-268 CNS, above 100 µM. Further, the TGI in the assay with SF-295 CNS was 34.5 µM; in the assay on SNB-75 CNS, 49.2 µM; in the assay with SW-620 colon it was 36.3 µM; in the assay on UO-31 renal, 29.6 µM.

The values above are taken from PubChem BioAssay (NCI).
